Results as given in patent US5252571A, “1,4-benzothiazine-2-acetic acid derivatives” (Sapporo Breweries Limited, priority 1990, dated 1993).

Columns and labels:
aldose reductase = biological target: T1, aldose reductase (Sus scrofa, UniProt P80276); test: Aldose reductase inhibitory activity (porcine crystalline lens enzyme); assay type: biochemical; settings: d1-glyceraldehyde 3 mM, pH 6.2, 25° C., 2 minutes
T1 construct: porcine crystalline lens stored at -80° C. was homogenized in distilled water; from tissue; host or cells: porcine crystalline lens
Procedure: Aldose reductase enzyme standard was prepared from porcine crystalline lens by the method of Hayman et al. (cf., S. Hayman et al., Journal of Biological Chemistry, 240, 877-882, 1965). That is, porcine crystalline lens stored at -80° C. was homogenized in distilled water followed by centrifugation at 10,000 XG for 15 minutes. The supernatant was dissolved to make 40% ammonium sulfate solution. The supernatant centrifuged at 10,000 XG for further 10 minutes was dialyzed to 0.05 M sodium chloride solution overnight. The thus obtained dialysate was used as the enzyme standard.
The activity of aldose reductase was determined by the method of Hayman et al. supra. That is, 25 μl of the enzyme solution described above and […] of a drug solution in 1% DMSO having various concentrations were added to 200 μl of 40 mM phosphate buffer (pH 6.2) prepared to contain […] lithium sulfate and 0.1 MM NADPH (reduced nicotinamide adenine dinucleotide phosphate) in final concentrations and Containing 3 mM d1-glyceraldehyde as substrate, respectively. Thereafter, the mixture was reacted at 25° C. for 2 minutes and change in absorbance at 340 nm was determined using COBAS FARA II (Roche Co.).

ICR strain mice = test: Safety test, single oral administration in mice with 14 days observation; assay type: in vivo; settings: 300 mg/kg oral, male ICR mice
Procedure: Next, safety of the compounds of the present invention was verified by the following test.
After normal ICR strain mice (male, 7 weeks age, 5 mice being into one group) was fasted for 18 hours, each compound (300 mg/kg) of Examples 1311, 132, 134, 156, 173, 179, 183 and 188 was orally administered in the form of 0.5% carboxymethylcellulose suspension. In the control group, 0.5% carboxymethylcellulose solution alone was orally administered. […] During the observation, mice were free access to feed and water.

[1] = test system: tissue sorbitol in streptozotocin-induced diabetic rats; test: Inhibitory activity of accumulation of tissue sorbitol in streptozotocin-induced diabetic rats; assay type: in vivo, Sprague-Dawley rats; settings: 30 mg/kg oral 4, 8 and 24 hours after streptozotocin, control = 100%, Tukey's test *p < 0.05, **p < 0.01; for Accumulation of Tissue Sorbitol (%), Nerve: sciatic nerve
Procedure: 4) Inhibitory activity of accumulation of tissue sorbitol in streptozatocini-induced diabetic rats.
Sprague-Dawley rats (male,6 weeks of age, one group composed of 5 to 6 rats), fasted overnight, were made diabetic by single intravenous injection of 60 mg/kg body weight of streptozotocin (SIGMA Co. ) , which had been freshly dissolved in normal saline solution.
The compound was orally administered in the form of 0.5% carboxymethylcellulose suspension in a dose of 30 mg/kg 4, 8 and 24 hours after the injection of streptozotocin. During the test, rats were free access to feed and water. Three hours after the final administration, the sorbitol contens in tissues (red blood cell, sciatic nerve, lens) Were determined by the enzyme method of Bergmeyer et al. [cf., H. Y. Bergmeyer et al., Methods of Enzymatic Analysis, 3, 1323-1330, 1974], using SDH (sorbitol dehydrogenase) and AND (β-nicotinamide adenine dinucleotide). The results are shown by percentage (%) when the value obtained with control group administered with 0.5% carboxymethylcellulose solution as a solvent instead of the compound was made 100%.

In the case of `O=C(O)CC1Sc2ccccc2N(Cc2nc3cc(F)ccc3s2)C1=O` (centres unmarked) [Example 131, 2-[4-(5-fluorobenzothiazol-2-yl]methyl-3,4-dihydro-3-oxo-2H-1,4-benzothiazin-2-yl]acetic acid], the IC50 (aldose reductase) is reported as 15 nM, the body weight (ICR strain mice) is reported as “progressed as in the control group” and the mice dead (ICR strain mice) is reported as “none”.

In the case of `Cc1ccc2c(c1)N(Cc1nc3cc(F)ccc3s1)C(=O)C(CC(=O)O)S2` (centres unmarked) [Example 132, 2-[4-(5-Fluorobenzothiazol-2-yl)methyl-6-methyl-3,4-dihydro-3-oxo-2H -1,4-benzothiazin-2-yl]acetic acid], the body weight (ICR strain mice) is reported as “progressed as in the control group” and the mice dead (ICR strain mice) is reported as “none”.

Work on `CCOc1ccc2c(c1)SC(CC(=O)O)C(=O)N2Cc1nc2cc(F)ccc2s1` (centres unmarked) [Example 133, 2-[7-Ethoxy-4-(5-fluorobenzothiazol-2-yl)methyl-3,4-dihydro-3-oxo-2H-1,4-benzothiazin-2-yl]acetic acid] yielded an IC50 (aldose reductase) of 15 nM.

With `Cc1cc(C)c2c(c1)N(Cc1nc3cc(F)ccc3s1)C(=O)C(CC(=O)O)S2` (centres unmarked) [Example 134, 2-[6,8-Dimethyl-4-(5-fluorobenzothiazol-2-yl)methyl-3,4-dihydro-3-oxo-2H-1,4-benzothiazin-2-yl]acetic acid] the body weight (ICR strain mice) was “progressed as in the control group” and the mice dead (ICR strain mice) was “none”.

In the case of `Cc1ccc2c(c1)N(Cc1nc3cc(Cl)ccc3s1)C(=O)C(CC(=O)O)S2` (centres unmarked) [Example 139], the IC50 (aldose reductase) is reported as 14 nM.

For `O=C(O)CC1Sc2ccccc2N(Cc2nc3c(Cl)c(Cl)ccc3s2)C1=O` (centres unmarked) [Example 154, 2-[4-(4,5-Dichlorobenzothiazol-2-yl)methyl-3,4-dihydro-3-oxo-2H-1,4-benzothiazin-2-yl]acetic acid], the “Accumulation of Tissue Sorbitol (%), Lens” value (shortened to “Accumulation … (%), Lens”) [1] was 59.0%, the “Accumulation of Tissue Sorbitol (%), Red Blood Cell” value (“Accumulation … (%), Red Blood Cell” below) [1] was 3.3% and the “Accumulation of Tissue Sorbitol (%), Nerve” value (“Accumulation … (%), Nerve” below) [1] was 18.6%.

With `O=C(O)CC1Sc2ccccc2N(Cc2nc3ccc(F)c(F)c3s2)C1=O` (centres unmarked) [Example 155, 2-[4-(6,7-Difluorobenzothiazol-2-yl)methyl-3,4-dihydro-3-oxo-2H-1,4-benzothiazin-2-yl]acetic acid] the IC50 (aldose reductase) was 14 nM, the “Accumulation … (%), Lens” value [1] was 36.8% and the “Accumulation … (%), Red Blood Cell” value [1] was 0.0%. For the same compound, the “Accumulation … (%), Nerve” value [1] was 7.0%.

`Cc1ccc2c(c1)N(Cc1nc3c(Cl)c(Cl)ccc3s1)C(=O)C(CC(=O)O)S2` (centres unmarked) [Example 156, 2-[4-(4,5-Dichlorobenzothiazol-2-yl)methyl-6-methyl-3,4-dihydro-3-oxo-2H-1,4-benzothiazin-2-yl]acetic acid] was tested, and the body weight (ICR strain mice) was “progressed as in the control group” and the mice dead (ICR strain mice) was “none”.

With `O=C(O)CC1Sc2ccccc2N(Cc2nc3c(F)ccc(F)c3s2)C1=O` (centres unmarked) [Example 158, 2-[4-(4,7-Difluorobenzothiazol-2-yl)methyl-3,4-dihydro-3-oxo-2H-1,4-benzothiazin-2-yl]acetic acid] the “Accumulation … (%), Lens” value [1] was 58.4%, the “Accumulation … (%), Red Blood Cell” value [1] was 39.2% and the “Accumulation … (%), Nerve” value [1] was 33.1%.

For `O=C(O)CC1Sc2ccccc2N(Cc2nc3ccc(Cl)c(Cl)c3s2)C1=O` (centres unmarked) [Example 160, 2-[4-(6,7-Dichlorobenzothiazol-2-.yl)methyl-3,4-dihydro-3-oxo-2H-1,4-benzothiazin-2-yl]acetic acid], the IC50 (aldose reductase) was 14 nM.

Compound `O=C(O)CC1Sc2ccccc2N(Cc2nc3c(Cl)c(Cl)cc(Cl)c3s2)C1=O` (centres unmarked) [Example 166, 2-[4-(4,5,7-Trichlorobenzothiazol-2-yl)methyl-3,4-dihydro-3-oxo-2H-1,4-benzothiazin-2-yl]acetic acid] has an IC50 (aldose reductase) of 9.1 nM.

With `O=C(O)CC1Sc2ccccc2N(Cc2nc3cc(F)cc(F)c3s2)C1=O` (centres unmarked) [Example 173, 2-[4-(5,7-Difluorobenzothiazol-2-yl)methyl-3,4-dihydro-3-oxo-2H-1,4-benzothiazin-2-yl]acetic acid] the IC50 (aldose reductase) was 14 nM, the body weight (ICR strain mice) was “progressed as in the control group” and the mice dead (ICR strain mice) was “none”.

For `Cc1ccc2c(c1)N(Cc1nc3c(F)cccc3s1)C(=O)C(CC(=O)O)S2` (centres unmarked) [Example 176, 2-[4-(4-Fluorobenzothiazol-2-yl)methyl-6-methyl-3,4-dihydro-3-oxo-2H-1,4-benzothiazin-2-yl]acetic acid], the IC50 (aldose reductase) was 14 nM.

In the case of `O=C(O)CC1Sc2cccc(F)c2N(Cc2nc3cc(F)ccc3s2)C1=O` (centres unmarked) [Example 177, 2-[5-Fluoro-4-(5-fluorobenzothiazol-2-yl)methyl-3,4-dihydro-3-oxo-2H-1,4-benzothiazin-2-yl]acetic acid], the IC50 (aldose reductase) is reported as 16 nM.

For `Cc1ccc2c(c1)N(Cc1nc3cc(F)cc(F)c3s1)C(=O)C(CC(=O)O)S2` (centres unmarked) [Example 179, 2-[4-(5,7-Difluorobenzothiazol-2-yl)methyl-6-methyl-3,4-dihydro-3-oxo-2H-1,4-benzothiazin-2-yl]acetic acid], the body weight (ICR strain mice) was “progressed as in the control group” and the mice dead (ICR strain mice) was “none”.

Compound `O=C(O)CC1Sc2cc(F)ccc2N(Cc2nc3cc(F)cc(F)c3s2)C1=O` (centres unmarked) [Example 182, 2-[4-(5,7-Difluorobenzothiazol-2-yl)methyl-7-fluoro-3,4-dihydro-3-oxo-2H-1,4-benzothiazin-2-yl]acetic acid] has an IC50 (aldose reductase) of 12 nM.

For `O=C(O)CC1Sc2cc(OC(F)(F)F)ccc2N(Cc2nc3cc(F)cc(F)c3s2)C1=O` (centres unmarked) [Example 187, 2-[4-(5,7-Difluorobenzothiazol-2-yl)methyl-7-trifluoromethoxy-3,4-dihydro-3-oxo-2H-1,4-benzothiazin-2-yl]acetic acid], the IC50 (aldose reductase) was 9.8 nM.

`Cc1ccc2c(c1)SC(CC(=O)O)C(=O)N2Cc1nc2ccc(F)c(F)c2s1` (centres unmarked) [Example 199, 2-[4-(6,7-Difluorobenzothiazol-2-yl)methyl-7-methyl-3,4-dihydro-3-oxo-2H-1,4-benzothiazin-2-yl]acetic acid] gave an IC50 (aldose reductase) of 7.7 nM.

With `O=C(O)CC1Sc2cc(Cl)ccc2N(Cc2nc3c(F)c(F)cc(F)c3s2)C1=O` (centres unmarked) [Example 202, 2-[4-(4,5,7-Trifluorobenzothiazol-2-yl)methyl-7-chloro-3,4-dihydro-3-oxo-2H-1,4-benzothiazin-2-yl]acetic acid] the IC50 (aldose reductase) was 8.7 nM.

With `COc1ccc2c(c1)N(Cc1nc3c(Cl)c(Cl)ccc3s1)C(=O)C(CC(=O)O)S2` (centres unmarked) [Example 206, 2-[4-(4,5-Dichlorobenzothiazol-2-yl)methyl-6-methoxy-3,4-dihydro-3-oxo-2H-1,4-benzothiazin-2-yl]acetic acid] the IC50 (aldose reductase) was 6.8 nM.

In the case of `O=C(O)CC1Sc2c(F)cccc2N(Cc2nc3c(F)c(F)cc(F)c3s2)C1=O` (centres unmarked) [Example 208, 2-[4-(4,5,7-Trifluorobenzothiazol-2-yl)methyl-8-fluoro-3,4-dihydro-3-oxo-2H-1,4-benzothiazin-2-yl]acetic acid], the “Accumulation … (%), Lens” value [1] is reported as 31.5%, the “Accumulation … (%), Red Blood Cell” value [1] is reported as 22.9% and the “Accumulation … (%), Nerve” value [1] is reported as 0.0%.

For `O=C(O)CC1Sc2ccc(F)cc2N(Cc2nc3c(F)c(F)ccc3s2)C1=O` (centres unmarked) [Example 209, 2-[4-(4,5-Difluorobenzothiazol-2-yl)methyl-6-fluoro-3,4-dihydro-3-oxo-2H-1,4-benzothiazin-2-yl]acetic acid], the “Accumulation … (%), Lens” value [1] was 25.2%, the “Accumulation … (%), Red Blood Cell” value [1] was 24.7% and the “Accumulation … (%), Nerve” value [1] was 3.1%.
